Results reported in EP3225590A1 (Université de Strasbourg, priority 2016, dated 2017).
Where “and” joins values, the source holds several entries; their conditions need not be identical. Equal entries are not always repeated. Where two headings read alike, the source gives them in different places.

Assays:
ANR-L1 = assay: Fluorescence titration of ANR-L1 suspension with analyte, 1:1 single-site binding fit; conditions: for factor weaker binding in the presence of 50 mM Trp than in the absence: ANR-L1, 50 mM Trp as potential competitor
ANR-Y1 = assay: Fluorescence titration of ANR-Y1 suspension with analyte, 1:1 single-site binding fit
CB8-D1 = CB8-D1 (cucurbit[8]uril and dye D1), in water, read-out: Kd (affinity), cited from earlier work
ANR-Y2 = assay: Fluorescence titration of ANR-Y2 suspension with analyte, 1:1 single-site binding fit
Text: (§1) This fitting procedure was used in favour of a Stern-Volmer analysis, because linearized binding plots are known to produce errors in Kd.
(§2) Herein, FA is the intensity at a given analyte concentration and F0 is the emission intensity before analyte addition. ΔF is a measure of the relative emission increase or decrease caused by the analyte. For fully non emissive AB complexes, i.e. when the analyte A is an efficient quencher, ΔF reaches -1. The quantity cA denotes the concentration of the analyte A and cB denotes the concentration of the "binding stations" in the ANR.
(§3) The values Kd and ΔF result from the non-least square fit given the input FA, F0, cA and cB.
(§4) The concentration cA of the analyte follows directly from the concentration of the stock solution and the added volume to the cuvette with the suspension of the ANR. The concentration cB of the single binding sites per ANR suspension is a priori not known. […] This so obtained value cB was then used as a constant for the fitting of the binding isotherms of the weaker binding analytes. […] In addition, it is reassuring to note that the value of the affinity constant Kd is rather insensitive to the concentration cB.

ANR-L3 = assay: Fluorescence titration of ANR-L3 suspension with analyte, 1:1 single-site binding fit
Text: as §1, §2, §3, §4

ANR-L4 = assay: Fluorescence titration of ANR-L4 suspension with analyte, 1:1 single-site binding fit
Text: as §1, §2, §3, §4

ANR-L2 = assay: Fluorescence titration of ANR-L2 suspension with analyte, 1:1 single-site binding fit
Text: as §1, §2, §3, §4

ANRs = conditions: 100 µM concentration; ANR-Y2, ANR-L3 and ANR-L5
[1] = cucurbit[7]uril, ref. [9]; read-out: Kd(5-HT); cited from earlier work
ANR1 = assay: Binding of tryptophan to ANR1 at acidic pH (data not shown); conditions: pH <3
[2] = 10 mM HEPES buffer (pH 7.3), ANR 250 µg/mL, >> = less than 10% change in emission intensity at >50 molar excess of analyte, error less than ±20%, read-out: Kd(ANR-L1)
[3] = 10 mM HEPES buffer (pH 7.3), ANR 250 µg/mL, >> = less than 10% change in emission intensity at >50 molar excess of analyte, error less than ±20%, read-out: Kd(ANR-Y1)
[4] = ANR-Y1 250 µg/mL, 10 mM HEPES buffer (pH 7.3), read-out: single site dissociation constant Kd
[5] = read-out: single site dissociation constant Kd, ANR-Y2 250 µg/mL, 10 mM HEPES buffer (pH 7.3)
[6] = ANR-L1 250 µg/mL, 10 mM HEPES buffer (pH 7.3) with 50 mM tryptophan added, read-out: Kd
[7] = stated for the larger-cavity zeolite-Y-based receptors, printed 'with ANR-L2'
[8] = ANR-L3 250 µg/mL in 10 mM HEPES buffer, pH 7.3 (aqueous buffer)

SMILES	Kd (ANR-L1; [2])	Kd (ANR-Y1; [3])	other results
CC(=O)OCC[N+](C)(C)C [acetylcholin]	> 1000 µM	> 1000 µM	
CNC[C@H](O)c1ccc(O)c(O)c1 [epinephrine]			Kd (ANR-L1; pH 7.3, read-out: Kd(ANR-L1)): > 600 µM; Kd (ANR-Y1; pH 7.3, read-out: Kd(ANR-Y1)): 26 µM; Kd (ANR-L2; ANR-L2, zeolite-L based): 240 µM; Kd (ANR-L2; [7]): 39 µM
NCCc1c[nH]cn1 [histamine]			Kd (ANR-L3; [8]): 360 µM
N[C@@H](Cc1c[nH]cn1)C(=O)O [histidine]	> 1000 µM	> 1000 µM	
O=C(O)Cc1c[nH]c2ccccc12 [indole-3-acetic acid]	> 1000 µM	> 1000 µM	
c1ccc2[nH]ccc2c1 [indole]	> 1000 µM	> 1000 µM	
COc1ccc2[nH]cc(CCNC(C)=O)c2c1 [melatonin]	> 1000 µM	> 1000 µM	
CN1CCCC1c1cccnc1 (stereo not drawn) [nicotine]			effect on emission intensity (ANRs): no appreciable effect
CC(=O)Nc1ccc(O)cc1 [paracetamol]	> 1000 µM	> 1000 µM	
NCCc1ccccc1 [phenethylamine]			Kd (ANR-L3; [8]): 190 µM; residual emission int. (ANR-L4; ANR-L4, at 25 µM of analyte): 75%; Kd (ANR-L4; ANR-L4, partial emission quenching): 19 µM
N[C@@H](Cc1ccccc1)C(=O)O [phenylalanine]	> 1000 µM	> 1000 µM	
CCC(=O)Nc1ccc(Cl)c(Cl)c1 [propanil]	> 1000 µM	> 1000 µM	
CC(=O)CCc1ccc(O)cc1 [raspberry ketone]	> 1000 µM	> 1000 µM	
NCCc1c[nH]c2ccccc12 [tryptamine]	10 µM	0.15 µM	Kd (ANR-L1; [6]): 27 µM; factor weaker binding in the presence of 50 mM Trp than in the absence (ANR-L1): ~ 3; Kd (ANR-L1; read-out: single site dissociation constant Kd): 3 µM; Kd (ANR-L3; [8]): ~9 µM; Kd (ANR-L3; ANR-L3, neat chloroform (absence of acetic acid)): 15 µM; Kd (ANR-L3; read-out: single site dissociation constant Kd, ANR-L3 250 µg/mL, chloroform:acetic acid (99:1)): 4 µM
N[C@@H](Cc1c[nH]c2ccccc12)C(=O)O [tryptophan (Trp), tryptophan]	> 1000 µM	> 1000 µM	binding to ANR1 (ANR1): binding; binding to ANR1 (ANR1; listed as trytophane): bind; Kd (CB8-D1): ~6.3 µM
N[C@@H](Cc1ccc(O)cc1)C(=O)O [tyrosine]	> 1000 µM	> 1000 µM	

More lines, main results first:

Kd (ANR-L1; [2])	Kd (ANR-Y1; [3])	SMILES	other results
> 1000 µM	> 1000 µM	N[C@@H](Cc1c[nH]c2ccc(O)cc12)C(=O)O [5-HTP]	
> 1000 µM	> 1000 µM	N[C@H](CO)C(=O)O [D-serine]	
> 1000 µM	> 1000 µM	N[C@@H](Cc1ccc(O)c(O)c1)C(=O)O [L-DOPA]	
32 µM	0.11 µM	NC(=O)[C@@H](N)Cc1c[nH]c2ccccc12 [TrpNH2]	Kd (ANR-Y1; [4]): ~0.11 µM; Kd (CB8-D1; listed as TrpNF2): 2.2 µM; Kd (CB8-D1): ~2.2 µM; Kd (ANR-Y2; [5]): 2.7 µM
> 1000 µM	> 1000 µM	Nc1ncnc2c1ncn2[C@@H]1O[C@H](CO)[C@@H](O)[C@H]1O [adenosine]	
> 1000 µM	> 1000 µM	NCCCCCN [cadaverine]	
> 1000 µM	> 1000 µM	Oc1ccccc1O [catechol]	
16 µM	3.4 µM	NCCc1ccc(O)c(O)c1 [dopamine]	Kd (ANR-L1; [6]): 48 µM; factor weaker binding in the presence of 50 mM Trp than in the absence (ANR-L1): ~ 3; Kd (ANR-Y1; read-out: approximated dissociation constant (Kd = 1/slope), Stern-Volmer plot, ANR-Y1): 4 µM; Kd (ANR-Y2; read-out: approximated dissociation constant (Kd = 1/slope), Stern-Volmer plot, ANR-Y2): 10 µM; Kd (ANR-Y2; [5]): 9.5 µM; Kd (ANR-L3; read-out: approximated dissociation constant (Kd = 1/slope), Stern-Volmer plot, ANR-L3): 15 µM; Kd (ANR-L4; read-out: approximated dissociation constant (Kd = 1/slope), Stern-Volmer plot, ANR-L4): 7 µM
> 1000 µM	> 1000 µM	NCCO [ethanolamine]	
> 1000 µM	> 1000 µM	N[C@@H](CCC(=O)O)C(=O)O [glutamate]	
> 1000 µM	> 1000 µM	NCC(=O)O [glycine (Gly), glycine]	
31 µM	11 µM	NC[C@H](O)c1ccc(O)c(O)c1 [norepinephrine]	Kd (ANR-L2; ANR-L2, zeolite-L based): 13 µM; Kd (ANR-L2; [7]): 26 µM
40 µM	11 µM	NCC(O)c1ccc(O)cc1 (stereo not drawn) [octopamine]	
> 600 µM	55 µM	CNC[C@H](O)c1cccc(O)c1 [phenylephrine]	
3.3 µM	0.07 µM	NCCc1c[nH]c2ccc(O)cc12 [serotonin (5-HT), serotonin]	Kd (ANR-L1; [6]): 14 µM; Kd (ANR-L1; ANR-L1 250 µg/mL, ethanolic media (ethanol with 0.2 mM acetic acid), read-out: single site dissociation constant Kd): ~25 µM; Kd (ANR-L1; ANR-L1 250 µg/mL, water and aqueous buffer, read-out: single site dissociation constant Kd): ~3 µM; factor weaker binding in the presence of 50 mM Trp than in the absence (ANR-L1): ~ 4; Kd (ANR-L1; read-out: approximated dissociation constant (Kd = 1/slope), Stern-Volmer plot, ANR-L1): 4 µM; Kd (ANR-Y1; [4]): 0.07 µM and ~0.07 µM; Kd [1]: ~15 µM; Kd (ANR-L2; read-out: approximated dissociation constant (Kd = 1/slope), Stern-Volmer plot, ANR-L2): 2 µM
27 µM	5.7 µM	NCCc1ccc(O)cc1 [tyramine]	quenching of the emission of ANR-L3 (ANR-L3; titration curve shows saturation behaviour): 30%
